This note sets out measurements from the PolyMetriX glass transition set.

As for `*/C=C(/*)C(CCC)[Si](C)(C)c1ccccc1` (repeat unit), the glass transition temperature was determined as 110.00 °C.

`*=CNc1ccc(Cc2ccc(N=*)cc2)cc1` (repeat unit): the glass transition temperature was found to be 95.50 °C.

Compound `*CC1CCC(COP(=O)(/N=N/c2ccc(Oc3ccc(/N=N/P(=O)(O*)OC)cc3)cc2)OC)CC1` (repeat unit) came in with a glass transition temperature of 50.00 °C.

`*CCCCCCOP(=O)(/N=N/c1ccc(CCOC(=O)c2cc(C(=O)OCCc3ccc(/N=N/P(=O)(O*)OC)cc3)cc(C(C)(C)C)c2)cc1)OC` (repeat unit) came in with a glass transition temperature of 47.00 °C.

With `*CCCCCCOP(=O)(/N=N/c1ccc(COC(=O)c2cc(C(=O)OCc3ccc(/N=N/P(=O)(O*)OC)cc3)cc(C(C)(C)C)c2)cc1)OC` (repeat unit), the glass transition temperature worked out at 62.00 °C.

Take `*CCCNC(=O)C(NC(=O)C(Cc1ccccc1)NC(=O)CCCCCCCCC(=O)NC(Cc1ccccc1)C(=O)NC(C(=O)NCCCOCCOCCO*)C(C)C)C(C)C` (repeat unit): the glass transition temperature was 66.00 °C.

In the case of `*CCCNC(=O)CNC(=O)C(NC(=O)C(Cc1ccccc1)NC(=O)CCCCCCCCC(=O)NC(Cc1ccccc1)C(=O)NC(C(=O)NCC(=O)NCCCOCCOCCO*)C(C)C)C(C)C` (repeat unit), the glass transition temperature was 58.00 °C.

Regarding `*CCOC(=O)Nc1ccc(C)c(NC(=O)OCCOc2cc([N+](=O)[O-])ccc2/N=N/c2cn(*)c3ccc(-c4ccc5c(c4)c4ccccc4n5CCCC)cc23)c1` (repeat unit), the glass transition temperature is 160.00 °C.

`*CCOCCOC(=O)C(CCCCCCCCC)C(=O)O*` (repeat unit) returned a glass transition temperature of -59.00 °C.

In the case of `*CCOP(=O)(/N=N/c1ccc(COC(=O)c2cc(C(=O)OCc3ccc(/N=N/P(=O)(O*)OC)cc3)cc(C(C)(C)C)c2)cc1)OC` (repeat unit), the glass transition temperature was found to be 105.00 °C.

For `*CCOP(=O)(/N=N/c1ccc(Oc2ccc(/N=N/P(=O)(O*)OCC)cc2)cc1)OCC` (repeat unit), the glass transition temperature is 22.00 °C.

`*Cc1ccc(COP(=O)(/N=N/c2ccc(-c3ccc(/N=N/P(=O)(O*)OC)cc3)cc2)OC)cc1` (repeat unit) came in with a glass transition temperature of 48.00 °C.

`*Cc1ccc(COP(=O)(/N=N/c2ccc(C(=O)c3ccc(/N=N/P(=O)(O*)OC)cc3)cc2)OC)cc1` (repeat unit) yielded a glass transition temperature of 48.00 °C.

For `*Cc1ccc(COP(=O)(/N=N/c2ccc(Oc3ccc(/N=N/P(=O)(O*)OC)cc3)cc2)OC)cc1` (repeat unit), the glass transition temperature was determined as 50.00 °C.

Take `*N1CCOC1(*)CC` (repeat unit): the glass transition temperature turned out to be 55.00 °C.

Compound `*N=P(*)(C)c1ccccc1` (repeat unit) gave a glass transition temperature of 37.00 °C.

`*N=P(*)(CC)c1ccccc1` (repeat unit) registered a glass transition temperature of 20.00 °C.

Compound `*N=P(*)(OCCOCCOCCOP1(OCCOCCOC)=NP(OCCOCCOC)(OCCOCCOC)=NP(OCCOCCOC)(OCCOCCOC)=N1)OCCOCCOCCOP1(OCCOCCOC)=NP(OCCOCCOC)(OCCOCCOC)=NP(OCCOCCOC)(OCCOCCOC)=N1` (repeat unit) came in with a glass transition temperature of -38.00 °C.

Compound `*Nc1cc([N+](=O)[O-])c(NC(=O)CCCCC(*)=O)cc1/C=C/c1ccc(N(C)C)cc1` (repeat unit) yielded a glass transition temperature of 206.00 °C.

`*Nc1cc([N+](=O)[O-])c(NC(=O)CCCCCCC(*)=O)cc1/C=C/c1ccc(N(C)C)cc1` (repeat unit) showed a glass transition temperature of 180.00 °C.

For `*OC(=O)C(NC(=O)CCCCC(=O)NC(C(=O)OC1COC2C(*)COC12)C(C)CC)C(C)CC` (repeat unit), the glass transition temperature was found to be 102.00 °C.

The compound `*OC(=O)C(NC(=O)CCCCCCCCC(=O)NC(C(=O)OC1COC2C(*)COC12)C(C)CC)C(C)CC` (repeat unit) displayed a glass transition temperature of 91.00 °C.

As to `*OC(C)C(=O)NC(C)C(*)=O` (repeat unit), the glass transition temperature came out at 57.7 °C.

Turning to `*Oc1ccc(-c2ccc(OC(=O)c3cc(CCCCC)cc(C(*)=O)c3)cc2)cc1` (repeat unit), the glass transition temperature amounted to 138.00 °C.
